This passage reports EC50 and inhibition results from paper PMC6013220, “Activation of TREK currents by riluzole in three subgroups of cultured mouse nodose ganglion neurons” (PLoS ONE, 2018).

In assay [1] the test system is T1, TREK subfamily channels (TREK-1, TREK-2 and TRAAK).
T1 construct: gene Kcnk2; native channels in cultured nodose ganglion neurons; the authors argue mainly TREK-1, subtype not proven
The assay can be described thus: whole-cell perforated patch clamp, outward current in native neurons. Format: cell-based, Mus musculus. Particulars: activator, unreliable (extrapolated), holding -30 mV, blocker cocktail, room temperature.

In another assay the target is T2, human TRESK (KCNK18) (Homo sapiens, UniProt Q7Z418).
T2 construct: full-length cDNA in pcDNA3.1, co-transfected with separate GFP cDNA in tsA201 cells
T2 sequence (Q7Z418 1-384): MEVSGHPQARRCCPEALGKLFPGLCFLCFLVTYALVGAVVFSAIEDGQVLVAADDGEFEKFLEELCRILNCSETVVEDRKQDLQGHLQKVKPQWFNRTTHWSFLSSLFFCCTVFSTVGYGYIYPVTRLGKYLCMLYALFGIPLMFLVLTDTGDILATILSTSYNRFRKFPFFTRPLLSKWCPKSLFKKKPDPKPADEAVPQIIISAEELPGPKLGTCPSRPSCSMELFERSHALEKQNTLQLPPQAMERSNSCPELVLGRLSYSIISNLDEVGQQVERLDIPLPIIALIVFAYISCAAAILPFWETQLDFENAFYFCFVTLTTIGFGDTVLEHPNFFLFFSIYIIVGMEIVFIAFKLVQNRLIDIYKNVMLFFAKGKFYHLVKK
The assay can be described thus: whole-cell patch clamp, current at -40 mV. It counts as cell-based.

As for `Nc1nc2ccc(OC(F)(F)F)cc2s1` [riluzole], in assay [1], the EC50 (usually the concentration needed to bring the measured effect to its halfway point) is 392.2 ± 182.8 µM. For the same molecule, at human TRESK (KCNK18), the inhibition – broadly, the percentage by which the read-out fell short of the control – at 100 µM was found to be 64%.
